From patent publication US20130172308A1, “ANTIMICROBIAL AGENTS” (John Grant COLLINS, priority 2011, published 2013)

Columns and labels:
S. aureus ATCC 25923 = assay: MIC determination, broth micro-dilution (CAMHB); type: cell-based, Staphylococcus aureus; conditions: Table 4; CAMHB; all ΔΔ- enantiomers
Outline: (§1)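 Ruthenium complexes two-fold serially diluted in cation-adjusted Mueller Hinton broth, final range 0.25–128 […], with equal volume of bacterial suspension; duplicate determinations, gentamicin as positive control. Plates incubated 37° C for 24 h; MIC by standard micro-dilution.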

P. aeruginosa = assay: Minimum Bactericidal Concentration (MBC) assay (CAMHB); type: cell-based, Pseudomonas aeruginosa; conditions: Table 4, all ΔΔ- enantiomers
Procedure: (§2) Further MIC assays and Minimum Bactericidal Concentration (MBC) assays were conducted against Gram-positive and Gram-negative bacterial strains using symmetric and non-symmetric, inert and labile complexes.

E. coli = assay: as above; type: cell-based, Escherichia coli; conditions: Table 4, all ΔΔ- enantiomers
Procedure: as §2

[1] = type: physicochemical; conditions: pH 7.4
Procedure: The primary difference between the members of the Rubbn family of complexes is the number of methylene groups in the flexible linking chain. […] Lipophilicity is a significant factor affecting the biological activity of most therapeutic compounds, as it relates to the capacity of the drug to penetrate through the cell membrane. The standard octanol-water partition coefficient (logP) was determined for the Rubbn series (F. Lombardo, B. Faller, M. Shalaeva, I. Tetko and S. Tilton, Methods and Principles in Medicinal Chemistry, 2008, 37, 407) parent model mononuclear species ([Ru(phen)2(Me2bpy)]^2+) and the trinuclear and tetranuclear complexes.
The partition coefficients (logP) were measured using the shake flask technique: each ruthenium complex (at both 0.05 and 0.1 mM) was dissolved in the water phase (0.2 M Na2HPO4—NaH2PO4 buffer, pH=7.4) and an equivalent volume of n-octanol was added.
The two phases were mutually saturated by shaking overnight at ambient temperature and then were allowed to separate on standing. The concentration of the metal complex in each phase was determined spectrophotometrically at l=450 nm.

[2] = tested on: MRSA (a wild clinical strain from the JCU culture collection); assay: MIC determination, broth micro-dilution (CAMHB); type: cell-based, methicillin-resistant S. aureus; conditions: Table 4; CAMHB; all ΔΔ- enantiomers
Outline: as §1

[3] = tested on: Plasmodium falciparum strain W2; assay: [3H]-hypoxanthine growth inhibition assay; type: cell-based; conditions: mean (SD), 96 h exposure, chloroquine-resistant strain; for IC50: read-out: IC50 W2; for IC90: read-out: IC90 W2
Procedure: (§3) The in vitro antimalarial activities of two of the dinuclear ruthenium(II) complexes and chloroquine were assessed by exposing P. falciparum strains to ten serially diluted two-fold concentrations of each compound. Parasite growth was measured by uptake of tritiated [^3H]-hypoxanthine into newly synthesised parasitic DNA.
(§4) The [^3H]-hypoxanthine growth inhibition assay (Desjardins et al., 1979 Antimicrobial Agents Chemother 16: 710-718) was used to evaluate the in vitro antimalarial activity of the compounds. Briefly, synchronised parasite cultures (>90% rings, 6 to 8 h post invasion) in [^3H]-RPMI-LPLF complete medium with 0.5% parasitaemia and 2% haematocrit were exposed to the compounds at ten two-fold concentrations, ranging from 10,000 to 20 nM in 96-well microtitre plates. Chloroquine was used as a reference drug. Uninfected RBCs at 2% haematocrit were used as background controls. For the 96 h exposure period, the plates were incubated in the gas mixture at 37° C. for approximately 48 h, followed by the addition of 0.2 μCi of ^3H-hypoxanthine (GE Healthcare, Amersham) in [^3H]-RPMI-1640-LPLF to each well and a further 48 h of incubation and then frozen at −20° C. Plates were thawed and harvested using Tomtech Harvester 96 Mach III and radioactive counts were obtained using Wallac TriLux 1450 Microbeta Liquid Scintillation Counter (Perkin Elmer, USA). All assays were performed in triplicate for each strain and at least on two separate occasions.
(§5) Tritiated hypoxanthine uptake data were analysed in Graphpad Prism V5.0 software (GraphPad Software Inc. USA). The concentrations of the dinuclear ruthenium(II) complexes and chloroquine were transformed into logarithmic values. After subtracting the background values, the data from drug-treated wells were normalised against drug-free control wells. Non-linear regression analysis was carried out of the compound's concentration versus parasitic hypoxanthine incorporation. The in vitro antimalarial activity of the compound is defined as inhibitory concentrations (IC50) and (IC90) that cause 50% and 90% inhibition of parasite growth as determined by measuring [^3H]-hypoxanthine incorporation.

[4] = tested on: Plasmodium falciparum strain D6; assay: [3H]-hypoxanthine growth inhibition assay; type: cell-based; conditions: mean (SD), 96 h exposure, chloroquine-sensitive strain; for IC50: read-out: IC50 D6; for IC90: read-out: IC90 D6
Procedure: as §3, §4, §5

MRSA = assay: Minimum Bactericidal Concentration (MBC) assay (CAMHB); type: cell-based, methicillin-resistant S. aureus; conditions: Table 4, all ΔΔ- enantiomers
Procedure: as §2

E. coli ATCC 25922 = assay: MIC determination, broth micro-dilution (CAMHB); type: cell-based, Escherichia coli; conditions: Table 4; CAMHB; all ΔΔ- enantiomers
Outline: as §1

P. aeruginosa ATCC 27853 = assay: MIC determination, broth micro-dilution (CAMHB); type: cell-based, Pseudomonas aeruginosa; conditions: Table 4; CAMHB; all ΔΔ- enantiomers
Outline: as §1

S. aureus = assay: Minimum Bactericidal Concentration (MBC) assay (CAMHB); type: cell-based, Staphylococcus aureus; conditions: Table 4, all ΔΔ- enantiomers
Procedure: as §2

Molecule | MIC S. aureus (S. aureus ATCC 25923) | MBC P. aeruginosa (P. aeruginosa) [µg/mL] | MBC E. coli (E. coli) [µg/mL] | logP [1] | MIC MRSA [2] | IC50 [3] [nM] | IC90 [3] [nM] | IC50 [4] [nM] | IC90 [4] [nM] | MBC MRSA (MRSA) [µg/mL] | MIC E. coli (E. coli ATCC 25922) | MIC P. aeruginosa (P. aeruginosa ATCC 27853) | MBC S. aureus (S. aureus) [µg/mL]
[{Ru(phen)2}2(μ-bb12)] [Rubb12] | 1 | 32 | 2 | −2.7 | 1 | 739 | 1400 | 733 | 1250 | 2 | 2 | 16 | 2
Cc1ccnc(-c2cc(CCCCCCCCCCCCCCCCc3ccnc(-c4cc(C)ccn4)c3)ccn2)c1.[Cl-].[Cl-].[Cl-].[Cl-].[Ru+2].[Ru+2].c1cnc2c(c1)ccc1cccnc12.c1cnc2c(c1)ccc1cccnc12.c1cnc2c(c1)ccc1cccnc12.c1cnc2c(c1)ccc1cccnc12 [Rubb16, [{Ru(phen)2}2(μ-bb16)]Cl4] | 1 | 8 | 2 | −1.9 | 1 | 289 | 444 | 226 | 413 | 2 | 2 | 8 | 1
